# Data: patent US8530521B2, “Nitrooxy cycloalkane derivatives” (Merck Sharp & Dohme Corp., priority 2008, dated 2013)
# System: isolated rabbit thoracic aorta preparations
# Test: Vessel relaxation in isolated rabbit thoracic aorta rings precontracted with noradrenaline
# Settings: for EC50: Oryctolagus cuniculus
Compound,Max. Relaxation (@ 1 μM),EC50,Max. Relaxation (concentration not given)
"CO[C@H]1C[C@@H](C(=O)O)C[C@@H]1O[N+](=O)[O-] [Example 1, (+)-(1R,3S,4S)-3-methoxy-4-(nitrooxy)cyclopentanecarboxylic acid]",37.47%,126 µM,–
"COC(=O)[C@@H]1CC[C@@H](OC)[C@H](O[N+](=O)[O-])C1 [Example 24, (1R,3R,4R)-methyl 4-methoxy-3-(nitrooxy)cyclohexanecarboxylate]",–,11.1 ± 4.5 µM,–
"CC(=O)N[C@H](C(=O)O)C(C)(C)SN=O (racemic) [SNAP, S-nitroso-N-acetylpenicillamine, reference compound]",–,–,97.3%
"COC(=O)[C@@H]1CC[C@H](O[N+](=O)[O-])[C@@H](OC)C1 [Example 23, (1R,3S,4S)-methyl 3-methoxy-4-(nitrooxy)cyclohexanecarboxylate]",–,3.5 ± 0.6 µM,–
"COC(=O)[C@@H]1CC[C@H](OC)[C@@H](O[N+](=O)[O-])C1 [Example 21, (1R,3S,4S)-methyl 4-methoxy-3-(nitrooxy)cyclohexanecarboxylate]",–,1 ± 0.2 µM,–
"COC(=O)[C@@H]1CC[C@@H](O[N+](=O)[O-])[C@H](OC)C1 [Example 22, (1R,3R,4R)-methyl 3-methoxy-4-(nitrooxy)cyclohexanecarboxylate]",–,6.3 ± 2 µM,–
